Measured values from paper PMC6245549 (Journal of medicinal chemistry, 2018).

Legend:
c-Myc = assay: Western blot of c-Myc levels in MM.1S cells; type: cell-based; settings: 6 h, concentrations approaching BRD4(1) Kd
BRD4(1) [1] = target: T1, BRD4(1) (Homo sapiens, UniProt O60885); assay: Isothermal-titration calorimetry; type: binding
A549 cells = assay: Cytotoxicity toward A549 cells; type: cell-based
[2] = system: MSK1 phosphorylation at T581; assay: Phosphorylation state of MSK1; type: cell-based
IL-8 [3] = assay: IL-8 ELISA; type: cell-based; settings: Homo sapiens, read-out: Inhibition of IL-8 cytokine production
BRD4(1) [4] = target: T1, BRD4(1); assay: Fluorescence anisotropy, BRD4
BRD4(2) = BRD4(2) (Homo sapiens, UniProt O60885); assay: Fluorescence anisotropy, BRD4
kinases = settings: 100 nM; no reference given; cited from earlier work
p38α [5] = target: T2, p38α (Homo sapiens, UniProt Q16539); assay: DiscoverX kinase-selectivity profiling, p38α; type: binding; settings: 1 μM, DiscoverX platform
BPTF = BPTF (Homo sapiens, UniProt Q12830); assay: Protein-observed fluorine NMR; type: binding
BRDT(1) = BRDT(1) (Homo sapiens, UniProt Q58F21); assay: Protein-observed fluorine NMR; type: binding; settings: 50 μM 19F-labeled protein, W50
BET D2s = assay: DiscoverX bromodomain-selectivity profiling, BET D2s; type: binding, human; settings: 10 μM
p38α [6] = target: T2, p38α; assay: Cellular thermal-shift assay; type: cell-based; settings: A549 cells, isothermal denaturation, dose-dependent
p38β = p38β (Homo sapiens, UniProt Q15759); assay: DiscoverX kinase-selectivity profiling, p38β; type: binding; settings: 1 μM, DiscoverX platform
[7] = system: yeast GCN5-like malarial protein (pfGCN5); assay: Protein-observed fluorine NMR; type: binding
A549-NF-κB-luc cells = assay: NF-κB luciferase reporter assay
IL-8 [8] = settings: 20 μM; cited from earlier work
BRD4 D1 = BRD4 D1 (Homo sapiens, UniProt O60885); assay: ALPHAScreen, BRD4 D1
BRD4(1) [9] = target: T1, BRD4(1); assay: Protein-observed fluorine NMR; type: binding

T2 sequence (Q16539 whole entry): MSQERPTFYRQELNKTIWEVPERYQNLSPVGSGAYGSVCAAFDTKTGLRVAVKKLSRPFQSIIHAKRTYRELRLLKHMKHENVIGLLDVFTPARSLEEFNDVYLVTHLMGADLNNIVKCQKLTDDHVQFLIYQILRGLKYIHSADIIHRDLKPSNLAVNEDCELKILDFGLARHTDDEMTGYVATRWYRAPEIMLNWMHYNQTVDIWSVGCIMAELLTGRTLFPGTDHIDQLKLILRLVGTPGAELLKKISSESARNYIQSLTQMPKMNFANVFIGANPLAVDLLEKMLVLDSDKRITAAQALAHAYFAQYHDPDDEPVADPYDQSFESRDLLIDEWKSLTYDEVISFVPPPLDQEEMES
Chain of p38β (Q15759 whole entry): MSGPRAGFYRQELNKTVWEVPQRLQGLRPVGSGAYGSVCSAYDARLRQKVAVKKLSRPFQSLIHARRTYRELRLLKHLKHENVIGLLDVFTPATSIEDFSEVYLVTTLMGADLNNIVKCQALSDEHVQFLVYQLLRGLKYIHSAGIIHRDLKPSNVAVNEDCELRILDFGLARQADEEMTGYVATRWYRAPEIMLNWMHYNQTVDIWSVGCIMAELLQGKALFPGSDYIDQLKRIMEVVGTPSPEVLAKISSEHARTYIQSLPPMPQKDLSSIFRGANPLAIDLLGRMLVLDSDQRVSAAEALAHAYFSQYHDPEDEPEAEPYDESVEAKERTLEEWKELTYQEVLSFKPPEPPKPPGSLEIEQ

With `Cc1ccc(Nc2nccc(-c3c(-c4ccc(F)cc4)ncn3C3CCNCC3)n2)cc1C` [Compound IV, N-(3,4-Dimethylphenyl)-4-(4-(4-fluorophenyl)-1-(piperidin-4-yl)-1H-imidazol-5-yl)pyrimidin-2-amine] the “Expression of c-Myc oncoprotein, in words” value (c-Myc) was “inhibited expression”, the “Entropy of binding in ITC” value (BRD4(1) [1]) was 5.0 cal/mol/°C and the “Concentration up to which cytotoxicity toward A549 cells is minimal” value (A549 cells) was ≤ 25 µM. For the same molecule, the “MSK1 phosphorylation at T581, in words” value [2] was “decrease in levels of MSK1 phosphorylation”.

With `Cc1sc2c(c1C)C(c1ccc(Cl)cc1)=N[C@@H](CC(=O)OC(C)(C)C)c1nnc(C)n1-2` [(+)-JQ1, reference compound] the inhibition at 1 µM (IL-8 [3]) was 63% and the “MSK1 phosphorylation at T581, in words” value [2] was “not observed”.

With `Fc1ccc(-c2ncn(C3CCNCC3)c2-c2ccnc(Oc3cc(F)cc(F)c3)n2)cc1` [Compound VI, 2-(3,5-Difluorophenoxy)-4-(4-(4-fluorophenyl)-1-(piperidin-4-yl)-1H-imidazol-5-yl)pyrimidine] the “Binding to BRD4(1), in words” value (BRD4(1) [4]) was “only bound weakly” and the “Binding to BRD4(2) / displacement of BI-BODIPY, in words” value (BRD4(2)) was “only bound weakly”.

In the case of `C[S+]([O-])c1ccc(-c2nc(-c3ccc(F)cc3)c(-c3ccncc3)[nH]2)cc1` (centres unmarked) [SB203580], the Kinase selectivity score (kinases) is listed as 0.024.

With `Cc1cc(C)cc(Nc2nccc(-c3c(-c4ccc(F)cc4)ncn3C3CCNCC3)n2)c1` [Compound V, N-(3,5-Dimethylphenyl)-4-(4-(4-fluorophenyl)-1-(piperidin-4-yl)-1H-imidazol-5-yl)pyrimidin-2-amine] the “Inhibitory activity against p38α, in words” value (p38α [5]) was “high inhibitory activity”, the “Binding to BPTF by PrOF NMR, in words” value (BPTF) was “did not detect binding” and the “Small molecule needed to reach fully bound state of WPF-shelf resonance, BRDT(1)” value (BRDT(1)) was “approximately 1 equiv”. The “Inhibition of BET D2s, DiscoverX” value (BET D2s) was 7−27%, the “Expression of c-Myc oncoprotein, in words” value (c-Myc) was “inhibited expression” and the “Concentration above which p38α is stabilized (CETSA)” value (p38α [6]) was > 1 nM. The “Concentration up to which cytotoxicity toward A549 cells is minimal” value (A549 cells) was ≤ 10 µM, the “MSK1 phosphorylation at T581, in words” value [2] was “decrease in levels of MSK1 phosphorylation” and the “Inhibitory activity against p38β, in words” value (p38β) was “high inhibitory activity”. The “Binding to GCN5-like malarial protein by PrOF NMR, in words” value [7] was “did not detect binding”.

In the case of `NC(=O)c1ccc(N(C(N)=O)c2c(F)cccc2F)nc1-c1ccc(F)cc1F` [VX-702], the “Inhibition in NF-κB reporter assay, in words” value (A549-NF-κB-luc cells) is reported as “limited inhibitory effects”.

In the case of `C=C1C(=O)O[C@H]2[C@H]1CC/C(C)=C/CC[C@@]1(C)O[C@@H]21` [parthenolide], the “IL-8 production, in words” value (IL-8 [8]) is given as “decreased IL-8 production to baseline”.

In the case of `Cc1cc(C)cc(Nc2nccc(-c3c(C)nnn3C3CCNCC3)n2)c1` [IX, N-(3,5-Dimethylphenyl)-4-(4-methyl-1-(piperidin-4-yl)-1H-1,2,3-triazol-5-yl)pyrimidin-2-amine], the “Enhancement of binding to BRD4(1) relative to VII” value (BRD4 D1) is reported as 20 fold.

In the case of `Cc1cc(C)cc(Nc2nccc(-c3c(-c4ccc(F)cc4)nnn3C3CCNCC3)n2)c1` [VII, N-(3,5-Dimethylphenyl)-4-(4-(4-fluorophenyl)-1-(piperidin-4-yl)-1H-1,2,3-triazol-5-yl)pyrimidin-2-amine], the “Binding to BRD4(1) by PrOF NMR, in words” value (BRD4(1) [9]) is reported as “bound BRD4(1) in a manner similar to that of compound V”.
